# Assay results: US20100331363A1, “TREATMENT OF MITOCHONDRIAL DISORDERS USING A FARNESYL TRANSFERASE INHIBITOR” (Link Medicine Corporation, priority 2008, published 2010)
# Entries after “also recorded” stand apart in the source; their conditions may differ. Where two headings read alike, the source gives them in different places.
# Legend:
# FTase = FTase (Homo sapiens, UniProt P49354+P49356); assay: Table 5A in vitro FTI (H-Ras, K-Ras protein) and Ki FTase; format: biochemical
# From the text: The selectivity of LNK-754 for FTase over GGTAse is shown below in Table 5A.
# [1] = Pharmacokinetics of LNK-754-TS in mice, oral; format: in vivo, mouse; conditions: for MRT inf: read-out: MRT(0-∞)
# From the text: In the experimental data represented in Table 2A, a different method of drug delivery is used (oral) than in the experiment represented in FIG. 3. The best way to compare the relative coverage of the two delivery methods (oral and continuous infusion) is by comparing area-under-the-curve (AUC) values. We can compare the calculated AUC values for the continuous infusion oncology study presented in FIG. 3 and the AUC values associated with the synuclein model doses in the table. […] The AUCs of orally dosed LNK-754-TS at 0.9 mg/kg and at 0.09 mg/kg QD are 34.6 and […], respectively.
# The pharmacokinetic profiles of LNK-754-TS and Zarnestra® were analyzed using methods known in the art. The results are shown in FIGS. 13-14 and the tables below.
# Ras = assay: Soluble/cytoplasmic Ras level in frontal cortex of alpha-synuclein transgenic mice; format: in vivo, mouse; conditions: 0.09 mg/kg or 9 mg/kg b.i.d. 3 months vs vehicle
# Method: The level of inhibition of Ras in brain by LNK-754-TS, dosed at an efficacious dose for efficacy in animal models of proteinopathy-dependent neurodegeneration, was investigated. Alpha-synuclein transgenic mice were treated for 3 months b.i.d. with vehicle or LNK-754-TS at 0.09 mg/kg or 9 mg/kg. Cortical tissue was extracted and homogenized, followed by isolation of soluble/cytosolic proteins in detergent-free buffer (50 mM Tris-HCl pH 7.4, 140 mM NaCl, 2 mM EDTA, Protease inhibitor cocktail) by centrifugation. 15 micrograms of protein lysate was analyzed per lane of SDS-PAGE gel, and immunoblotted for Ras and actin (FIG. 6). Densitometry was used to quantify the Ras/actin ratio for each sample, and results were plotted (FIG. 7). […] This contrasts with what is observed in xenograft cancer models, where inhibition of Ras farnesylation by high dose FTIs is directly correlated with efficacy (FIG. 3 and Example 3).
# Aβ = Aβ immunohistochemistry, Thioflavin-S and Aβ40/Aβ42 ELISA in APP/PS1 transgenic mice; format: in vivo, mouse
# From the text: Immunohistochemistry and quantification of stained cells: For evaluation of α-synuclein immunoreactivity (IR), 5 sagittal cryo-cut sections (10 μm slice thickness) from five different layers were used for counting of IR cells in the cortex and hippocampus. Brain sections were stained with a monoclonal human α-synuclein specific antibody (Alexis®; Cat#804-258-L001; dilution 1:5), followed by a secondary Ab Cy 2-Goat Anti-Rat (Jackson ImmunoResearch®; dilution 1:200). IR positive cells were quantified using specialized image analysis software (Image Pro Plus, version 4.5.1.29). For Tau transgenic animals, 5 μm thick coronal paraffin sections were stained with the monoclonal mouse anti-human TAU-antibodies (AT180—1:100; HT7—1:500) and visualized using an anti-mouse Cy3 secondary antibody (1:500, Jackson Laboratories®). Images were evaluated with ImageProPlus (version 6.2) image analysis software. For APP/PS1 transgenic animals sagittal hemisections (40 μm) were collected and processed for Aβ immunohistochemistry using an 6E10 antibody, Thioflavin-S staining. Primary antibodies were detected by the ABC method.
# ELISA quantification of α-Synuclein in the α-Synuclein transgenic animals: Brain homogenate was centrifuged and the supernatant saved as fraction F1. The pellet was washed then resuspended and saved as fraction F2. Plates (Nunc, 464718) were coated with SYN-1 (1:1000, BD Transduction Labs, 610787). Monomeric recombinant α-synuclein was included as an internal standard. Biotinylated antibody FL-140 (1:300, Santa Cruz Biotechnology, sc-10717-B) and ExtrAvidin-Alkaline phosphatase (3:5000, Sigma, E2636) was added followed by pNPP substrate solution (Sigma, N1891). Raw absorbance (405 nm) was then normalized to the total protein concentration of each sample. In the APP/PS1 transgenic animal, brains were homogenized and the supernatant, Faction 1, was separated from the pellet. The pellets were further processed with addition of NP40 and Triton X-100. The supernatant was separated from the pellet as the insoluble membrane, Fraction 2, and was dissolved in 8M Guanidine. To quantify the amount of human Aβ-40 and Aβ-42, ELISA kits were used (The Genetics Company, Zurich, Switzerland).
# Mice were treated with LNK-754-TS for two months, tested for performance in the Morris water maze (MWM), and then sacrificed for immunohistochemical (Aβimmunoreactivity) and biochemical (ELISA measurement of Aβ40 and Aβ42) analysis.
# [2] = C57BL/6, mouse, in vivo, po, 9 mg/kg, Group 5 (9 mg/kg SID), C57BL/6 mice, oral
# [3] = C57BL/6, mouse, in vivo, po, 9 mg/kg, Group 6 (9 mg/kg BID), C57BL/6 mice, oral
# [4] = C57BL/6, mouse, in vivo, po, 9 mg/kg, Group 9 (9 mg/kg Day 5), C57BL/6 mice, oral
# [5] = 0.9 mg/kg once every 24 hr, two months
smiles,measurement,setting,value
"C#Cc1cccc(-c2cc(=O)n(C)c3ccc([C@](O)(c4ccc(Cl)cc4)c4cncn4C)cc23)c1 [LNK-754, (R)-6-[(4-chlorophenyl)-hydroxyl-(1-methyl-1-H-imidazol-5-yl)-methyl]-4-(3-ethynylphenyl)-1-methyl-2-(1H)-quinonlinone]",Ki,FTase,< 0.05 nM
same,GGTI/FTI (H-Ras),FTase; ratio,580
same,GGTI/FTI (K-Ras),FTase; ratio,40.11
same,IC50,FTase; read-out: H-Ras protein CLVS in vitro FTI,0.9 nM
same,IC50,FTase; read-out: K-Ras protein CVIM in vitro FTI,72 nM
"C#Cc1cccc(-c2cc(=O)n(C)c3ccc([C@](O)(c4ccc(Cl)cc4)c4cncn4C)cc23)c1 [LNK-754-TS, (R)-6-[(4-chlorophenyl)-hydroxyl-(1-methyl-1-H-imidazol-5-yl)-methyl]-4-(3-ethynylphenyl)-1-methyl-2-(1H)-quinonlinone (2S, 3S)-dihydroxybutanedioate]",AUC,"[1]; 0.9 mg/kg oral, QD day 1, 5% beta-cyclodextrin, mice",34.6 ng·h/mL
same,Cmax,"[1]; C57BL/6, mouse, in vivo, po, 0.09 mg/kg, 0.09 mg/kg oral, QD day 1, 5% beta-cyclodextrin, mice",0.61 ng/mL
same,AUC,"[1]; C57BL/6, mouse, in vivo, po, 0.09 mg/kg, 0.09 mg/kg oral, QD day 1, 5% beta-cyclodextrin, mice, read-out: AUC",0.63 ng·h/mL
same,Cmax,"[1]; C57BL/6, mouse, in vivo, po, 0.9 mg/kg, 0.9 mg/kg oral, QD day 1, 5% beta-cyclodextrin, mice",31.1 ng/mL
same,AUC,"[1]; C57BL/6, mouse, in vivo, po, 0.9 mg/kg, 0.9 mg/kg oral, QD day 1, 5% beta-cyclodextrin, mice, read-out: AUC",34.6 ng·h/mL
same,AUC,"[1]; C57BL/6, mouse, in vivo, po, 9 mg/kg, 9 mg/kg BID oral, mice (text summary of day 1 and day 5), read-out: AUC",2000 to 2600 ng·h/mL
same,Cmax,"[1]; C57BL/6, mouse, in vivo, po, 9 mg/kg, 9 mg/kg oral, BID day 1, 20% beta-cyclodextrin, mice",1380 ng/mL
same,AUC,"[1]; C57BL/6, mouse, in vivo, po, 9 mg/kg, 9 mg/kg oral, BID day 1, 20% beta-cyclodextrin, mice, read-out: AUC",2100 ng·h/mL
same,Cmax,"[1]; C57BL/6, mouse, in vivo, po, 9 mg/kg, 9 mg/kg oral, BID day 5, 20% beta-cyclodextrin, mice",1480 ng/mL
same,AUC,"[1]; C57BL/6, mouse, in vivo, po, 9 mg/kg, 9 mg/kg oral, BID day 5, 20% beta-cyclodextrin, mice, read-out: AUC",2630 ng·h/mL
same,AUC(0-inf),[1]; [2],752 ng·h/mL
same,AUC(0-t),[1]; [2],730 ng·h/mL
same,Cmax,[1]; [2],318 ng/mL
same,half-life,[1]; [2],1.5 h
same,MRT inf,[1]; [2],2.38 h
same,AUC(0-inf),[1]; [3],2290 ng·h/mL
same,AUC(0-t),[1]; [3],2100 ng·h/mL
same,Cmax,[1]; [3],1390 ng/mL
same,half-life,[1]; [3],5.04 h
same,MRT inf,[1]; [3],2.67 h
same,AUC(0-inf),[1]; [4],2630 ng·h/mL
same,AUC(0-t),[1]; [4],2630 ng·h/mL
same,Cmax,[1]; [4],1490 ng/mL
same,half-life,[1]; [4],0.62 h
same,MRT inf,[1]; [4],1.43 h
same,Tmax,"[1]; C57BL/6, mouse, in vivo, 0.09 mg/kg oral, QD day 1, 5% beta-cyclodextrin, mice",0.5 h
same,Tmax,"[1]; C57BL/6, mouse, in vivo, 0.9 mg/kg oral, QD day 1, 5% beta-cyclodextrin, mice",0.5 h
same,Tmax,"[1]; C57BL/6, mouse, in vivo, 9 mg/kg oral, BID day 1, 20% beta-cyclodextrin, mice",1 h
same,Tmax,"[1]; Group 5 (9 mg/kg SID), C57BL/6 mice, oral",1 h
same,Tmax,"[1]; Group 6 (9 mg/kg BID), C57BL/6 mice, oral",1 h
same,Tmax,"[1]; Group 9 (9 mg/kg Day 5), C57BL/6 mice, oral",1 h
same,soluble Ras/actin level in cortex,Ras,No significant differences
same,Thioflavin-S staining in the subiculum,Aβ; [5],no statistically significant changes
same,"levels of Aβ40/Aβ42 from whole brain fractions, ELISA",Aβ; [5],no statistically significant changes
same,number of Aβ (6E10) immunoreactive plaques in the subiculum,"Aβ; 0.9 mg/kg once every 24 hr, two months, vs vehicle","lesser, but still significant, effect; also recorded: significant decrease"
same,"Aβ40 or Aβ42 levels, Aβ immunoreactivity or Thio-S staining","Aβ; 0.9 mg/kg, 12 days",no significant reduction
